# Results from patent publication US20240238211A1, “ISOQUINOLINE-STABILIZED LIPID NANOPARTICLE FORMULATIONS” (ModernaTX, Inc., priority 2021, published 2024).
# Experiments:
# mRNA [1] = experiment: mRNA stabilization: main peak purity by RP-HPLC (Example 1); format: physicochemical; details: LNP mRNA 0.2 mg/mL in buffer, T0, 3-day, 7-day (berberine, palmatine); buffered mRNA, 5 days at 50° C. (coralyne, palmatine)
# Description: mRNA purity can be determined by reverse phase high-performance liquid chromatography (RP-HPLC) size based separation. This method can be used to assess mRNA integrity by a length-based gradient RP separation and UV detection of RNA at 260 nm. As used herein “main peak” or “main peak purity” refers to the RP-HPLC signal detected from mRNA that corresponds to the full size mRNA molecule loaded within a given LNP formulation. mRNA purity can also be assessed by fragmentation analysis. Fragmentation analysis (FA) is a method by which nucleic acid (e.g., mRNA) fragments can be analyzed by capillary electrophoresis. Fragmentation analysis involves sizing and quantifying nucleic acids (e.g., mRNA), for example by using an intercalating dye coupled with an LED light source. Such analysis may be completed, for example, with a Fragment Analyzer from Advanced Analytical Technologies, Inc. Berberine USP was combined with an LNP containing mRNA (0.2 mg/ml in buffer) in amounts corresponding to the concentrations reported in FIG. 2. Main peak purity was measured by RP-HPLC at T0, 3-day, and 7-day. See, FIG. 2. Palmatine USP was combined with an LNP containing mRNA (0.2 mg/mL in buffer) in amounts corresponding to the concentrations reported in FIG. 3. Main peak purity was measured by RP-HPLC at T0, 3-day, and 7-day. […] After storage for 5 days at 50° C., main peak purity was measured by RP-HPLC. […]
# mRNA [2] = experiment: mRNA purity of three month, 25° C. stability samples of mRNA LNPs; format: physicochemical; details: mRNA LNPs containing palmatine at varying concentrations, 3 months at 25° C.
# [3] = Immunogenicity of mRNA LNP stability samples in vivo (serum antibody titers); design: species or system BALB/c mice; details: three month, 25° C. stability samples of mRNA LNPs containing palmatine, mice
# Experimental: Experiments were performed to (i) evaluate immunogenicity of mRNA LNPs containing palmatine or berberine at varying concentrations as compared to non-stabilized control mRNA LNPs. BALB/c mice (N=210) are injected with a mRNA LNP stabilized with varying concentrations of palmatine or berberine (e.g., 0, 0.5 mM, 0.75 mM, 1 mM, 2 mM, 5 mM, or 10 mM). Various dose levels (e.g., 2.5 ug/mg; 1.25 ug/mg; or 0.63 ug/mg) are injected into mice intramuscularly on day 1. On day 21, immunogenicity is assessed via serum antibody titers against protein encoded by the mRNA. The mice are given a booster injection on day 22, and then immunogenicity is again assessed on day 36. Three month, 25° C. stability samples from mRNA LNPs containing palmatine at varying concentrations, and non-stabilized mRNA LNPs (no palmatine) were tested in vivo as continued immunogenicity monitoring on stability. […] The drop in antibody titers is correlated to a significant drop in mRNA purity.
# mRNA [4] = experiment: mRNA LNP stability as a function of pH and temperature (main peak purity); format: physicochemical; details: 1 mM excipient, pH 5.5 to 7.4, 0.8 mg/mL, 1 week at 40° C. or 2 weeks at 25° C.
# Experimental: The stability of mRNA LNP formulations was evaluated as a function of pH and temperature in the presence and absence of berberine and palmatine. 1 mM excipients were added in pH conditions 5.5 to 7.4 to evaluate pH impact on mRNA stabilization in mRNA LNPs. For pH between 5.5-6.5, 7 mM citrate and 8% sucrose buffer was used. For pH of 7.4, tris/sucrose buffer was used. The LNP formulations were incubated at 0.8 mg/mL for 1 week at 40° C. or 2 weeks at 25° C., and then main peak purity was measured. Incubation for 1 week at 40° C. or 2 weeks at 25° C. show similar trends. […] See, FIG. 7.
# mRNA [5] = experiment: Differential scanning microcalorimetry of mRNA with palmatine chloride; format: physicochemical; details: increasing palmatine chloride up to 500 μM, 20 mM Tris, 8% sucrose
# Experimental: With reference to FIG. 9, differential scanning microcalorimetry thermograms were obtained of lipid nanoparticles encapsulating mRNA and containing increasing concentrations of palmatine chloride (left-most trace—free mRNA, right-most trace—500 μM palmatine). The experiments were performed in 20 mM Tris, 8% sucrose buffer.
# mRNA [6] = experiment: Long-term stability of mRNA with 2 mM palmatine chloride (intact mRNA by chromatography); format: physicochemical; details: for degradation rate (% per month) / greater purity than unstabilized composition: 0.20 mg/ml mRNA + 2 mM palmatine chloride
# Experimental: The degradation rate (% per month) of the stabilized composition was 1.8% as compared to […] for the unstabilized composition. […] The degradation rate (% per month) of the stabilized composition was 8.6% as compared to 38% for the unstabilized composition. […] With reference to FIGS. 10A and 10B, studies were performed to determine the long-term effect of palmatine chloride on thermal stability of mRNA. Aliquots of mRNA solution were mixed with 2 mM palmatine chloride and were incubated for the indicated periods of time at 5° C. (FIG. 10A) and 25° C. (FIG. 10B). The percentage of remaining intact mRNA was quantified using chromatography. The dashed line traces represent mRNA-only samples. The solid line traces represent mRNA samples containing palmatine chloride.
# [7] = tested on: lipid nanoparticles encapsulating mRNA; experiment: Permeation of palmatine chloride into lipid nanoparticles encapsulating mRNA; format: physicochemical; details: 2 mM palmatine, 1 to 14 days, 5, 15, 25 or 40° C., 20 mM Tris, 8% sucrose
# Experimental: Formulations contain 0.20 mg/ml mRNA DP with 2 mM palmatine chloride. With reference to FIG. 11, studies were performed to determine the effect of time and temperature on diffusion (permeation) of palmatine chloride into lipid nanoparticles encapsulating mRNA. The samples were prepared in 20 mM Tris, 8% sucrose. The lipid nanoparticles encapsulating mRNA were incubated in 2 mM palmatine for 1 to 14 days. Free palmatine was separated from the lipid nanoparticles by gel filtration on 40 kD Zeba cartridges, whereas the concentration of lipid nanoparticle-permeated palmatine was determined by reverse phase chromatography using a Luna C18 column.
# mRNA [8] = experiment: Stability of mRNA LNPs with DTPA and palmatine chloride (main peak purity); format: physicochemical; details: 0.20 mg/ml mRNA LNP, 1 mM DTPA, palmatine chloride 0.5, 1 or 2 mM, up to 5 months
# Experimental: With reference to FIG. 12, studies were performed to determine the stability of lipid nanoparticles encapsulating mRNA containing the chelator DTPA and varying concentrations of palmatine chloride. 0.20 mg/ml samples of lipid nanoparticles encapsulating mRNA and 1 mM DTPA were incubated with palmatine chloride (0 mM, 0.5 mM, 1 mM, or 2 mM). Measurements of main peak (mRNA) purity were taken at time points up to 5 months.
# mRNA [9] = experiment: HPLC purity of mRNA stressed at 40° C. for 3 weeks; format: physicochemical; details: ~1 mM berberine
# Experimental: HPLC analyses were performed to evaluate the purity of mRNA stressed at elevated temperature (40° C.) for 3 weeks. In the absence of stabilizer, less than 5% of the mRNA (main peak 5.857 min) remained intact. By contrast, in the presence of ˜1 mM berberine, over 22% of the mRNA (main peak 5.857 min) remained intact. […] See, FIG. 5.
# mRNA LNPs = experiment: Dynamic light scattering of mRNA LNPs after 40° C. stress; format: physicochemical; details: 1 mM berberine, 40° C. stress for 1 week
# Description: Particle size (e.g., particle diameter) can be determined by Dynamic Light Scattering (DLS). DLS measures a hydrodynamic diameter. Smaller particles diffuse more quickly, leading to faster fluctuations in the scattering intensity and shorter decay times for the autocorrelation function. Larger particles diffuse more slowly, leading to slower fluctuations in the scattering intensity and longer decay times in the autocorrelation function. Dynamic light scattering is sensitive to perturbation to the physical integrity of mRNA LNPs. mRNA LNPs were formulated with 1 mM berberine or without berberine and then exposed to 40° C. temperature stress for 1 week. As a control, mRNA LNPs were formulated without berberine. The size distribution of the mRNA LNPs was then analyzed by dynamic light scattering. […] See, FIG. 6.
# mRNA [10] = experiment: mRNA LNP stability at pH 7.4 as a function of berberine concentration (main peak purity); format: physicochemical; details: 0-1.5 mM berberine, pH 7.4 tris/sucrose, ~0.2 mg/mL, 1 week at 40° C. or 2 weeks at 25° C.
# Experimental: The stability of mRNA LNP formulations at pH of 7.4 was then further evaluated as a function of berberine concentration. A series of mRNA LNPs were formulated with various levels of berberine (0, 0.2, 0.4, 0.6, 0.8, 1.0, 1.25, 1.5 mM) and stressed in 7.4 pH tris/sucrose buffer at ˜0.2 mg/mL for either 1 week at 40° C. or 2 weeks at 25° C., and then main peak purity was measured. […] In this study, maximal effect occurs in the 1-1.25 mM berberine range. See, FIG. 8.
effect on mRNA (main peak purity by RP-HPLC) (mRNA [1]),stabilizing effect across pH range (main peak purity) (mRNA [4]),effect of binding on thermal stability of mRNA (DSC thermograms) (mRNA [5]),degradation rate (% per month) (mRNA [6]; 5° C. over twelve months),"greater purity than unstabilized composition (mRNA [6]; 5° C., after ten months) [%]",degradation rate (% per month) (mRNA [6]; 25° C. over six months),"greater purity than unstabilized composition (mRNA [6]; 25° C., after six months) [%]","mRNA thermal stability in the presence of the compound (mRNA [6]; 2 mM palmatine chloride, 5° C. and 25° C.)",rate of permeation into lipid nanoparticles as a function of temperature [7],mRNA stability (main peak purity) (mRNA [8]),mRNA remaining intact (main peak) (mRNA [9]),dependence of stabilizing effect on concentration (mRNA [10]),SMILES,mRNA purity versus non-stabilized samples (mRNA [2]),antibody titers versus −70° C. non-stabilized control [3],permeated concentration in lipid nanoparticles as a function of temperature [7],effect on hydrodynamic characteristics of the lipid nanoparticle (size distribution) (mRNA LNPs)
stabilizing effect,strong stabilizing effects,increased thermal stability of mRNA,1.8,20,8.6,35,significantly improved,increased rate of permeation,significantly improved,–,–,COc1cc2c(cc1OC)-c1cc3ccc(OC)c(OC)c3c[n+]1CC2 [palmatine],higher mRNA purity than the non-stabilized,more similar antibody titers to the −70 °C control arm,increased permeated palmatine concentration,–
stabilizing effect,strong stabilizing effects,–,–,–,–,–,–,–,–,over 22%,concentration-dependent manner,COc1ccc2cc3[n+](cc2c1OC)CCc1cc2c(cc1-3)OCO2 [berberine],–,–,–,no effect on the hydrodynamic characteristics of the lipid nanoparticle
